From US5854241A, “Pyrido[3,2,1-I,J][3,1]benzoxazine derivatives” (Bayer Aktiengesellschaft, priority 1994, dated 1998)
Converted amounts (≈) assume the structure as drawn. Where two headings read alike, the source gives them in different places.

Tests used:
Type in all cases: cell-based
Salmonella = test: MIC by serial agar dilution, Salmonella; details: Salmonella strain 1 Fr; Iso-Sensitest agar, 37° C., approx. 20 hours
Method: (§1) The minimum inhibitory concentrations (MICs) were determined by serial dilution methods using Iso-Sensitest agar (Oxoid). For each test substance, a series of agar plates was prepared whose active compound concentrations decreased as the dilution was doubled. The agar plates were inoculated using a multipoint inoculator (Denley). The cultures used for inoculation were overnight cultures of the pathogen which had previously been diluted to such an extent that each inoculation point contained approximately 10^4 colony-forming units. The inoculated agar plates were incubated at 37° C., and the microbial growth was read off after approximately 20 hours.
(§2) The following table lists the MIC values of some of the compounds according to the invention in comparison with 9-fluoro-3-methyl-10-(4-methyl-1-piperazinyl)-7-oxo-1H,3H,7H-pyrido[3,2,1- i,j]-[3,1]-benzoxazine-6-carboxylic acid (EP-O 373 531) as reference compound.

Staphylococcus aureus = test: MIC by serial agar dilution, Staphylococcus aureus; details: 20 h, Iso-Sensitest agar, 37° C., approx. 20 hours
Method: as §1, §2

Pseudomonas = test: MIC by serial agar dilution, Pseudomonas; details: Pseudomonas strain BS 698 TGD; Iso-Sensitest agar, 37° C., approx. 20 hours
Method: as §1, §2

E. coli = test: MIC by serial agar dilution, E. coli; details: Escherichia coli, 20 h, Iso-Sensitest agar, 37° C., approx. 20 hours
Method: as §1, §2

Enterobacter = test: MIC by serial agar dilution, Enterobacter; details: Enterobacter strain 0,4 Ge 02-33; Iso-Sensitest agar, 37° C., approx. 20 hours
Method: as §1, §2

Klebsiella pneumoniae = test: MIC by serial agar dilution, Klebsiella pneumoniae; details: Klebsiella pneumoniae strain 2363 Ge; Iso-Sensitest agar, 37° C., approx. 20 hours
Method: as §1, §2

[1] = Staphylococcus aureus strain 3781 Ge
[2] = Staphylococcus aureus strain Z 2 Lit
[3] = E. coli strain Z 431 Lit, read-out: MIC

SMILES: CC1OCc2c(N3CC4CC=CC(N)C4C3)c(F)cc3c(=O)c(C(=O)O)cn1c23 (centres unmarked) [Example 1, 10-(2-Amino-8-azabicyclo[4,3,0]non-3-en-8-yl)-9-fluoro-3-methyl-7-oxo-1H,3H ,7H-pyrido-[3,2,1-i,j][3,1]benzoxazine6-carboxylic acid]
- MIC (Salmonella): 0.06 µg/mL (≈ 0.15 µM)
- MIC (Staphylococcus aureus; [1]): 0.12 µg/mL (≈ 0.3 µM)
- MIC (Staphylococcus aureus; [2]): 0.12 µg/mL (≈ 0.3 µM)
- MIC (Pseudomonas): 4 µg/mL (≈ 10 µM)
- MIC (E. coli; E. coli strain 21 Bui): 4 µg/mL (≈ 10 µM)
- MIC (E. coli; [3]): 0.015 µg/mL (≈ 0.0376 µM)
- MIC (Enterobacter): 0.25 µg/mL (≈ 0.626 µM)
- MIC (Klebsiella pneumoniae): 0.06 µg/mL (≈ 0.15 µM)

SMILES: CNC1C=CCC2CN(c3c(F)cc4c(=O)c(C(=O)O)cn5c4c3COC5C)CC21 (centres unmarked) [Example 5, 9-Fluoro-3-methyl-10-(2-methylamino-8-azabicyclo[4.3.0]non-3-en-8-yl)-7-oxo-1H,3H,7H-pyrido [3,2,1-i,j][3,]benzoxazine-6-carboxylic acid]
- MIC (Salmonella): 0.12 µg/mL (≈ 0.29 µM)
- MIC (Staphylococcus aureus; [1]): 0.12 µg/mL (≈ 0.29 µM)
- MIC (Staphylococcus aureus; [2]): 0.12 µg/mL (≈ 0.29 µM)
- MIC (Pseudomonas): 16 µg/mL (≈ 38.7 µM)
- MIC (E. coli; E. coli strain 21 Bui): 4 µg/mL (≈ 9.67 µM)
- MIC (E. coli; [3]): ≤ 0.015 µg/mL
- MIC (Enterobacter): 0.12 µg/mL (≈ 0.29 µM)
- MIC (Klebsiella pneumoniae): 0.12 µg/mL (≈ 0.29 µM)

SMILES: CC1OCc2c(N3CC4CCCNC4C3)c(F)cc3c(=O)c(C(=O)O)cn1c23 (centres unmarked) [Example 4, 10-(2.8-Diazabicyclo[4,3,0]nonan-8-yl)-9-fluoro-3-methyl-7-oxo-1H,3H,7H-pyr ido-[3,2,1-i,j][3,1]benzoxazine-6-carboxylic acid]
- MIC (Salmonella): 0.25 µg/mL (≈ 0.645 µM)
- MIC (Staphylococcus aureus; [1]): 8 µg/mL (≈ 20.6 µM)
- MIC (Staphylococcus aureus; [2]): 0.5 µg/mL (≈ 1.29 µM)
- MIC (Pseudomonas): 8 µg/mL (≈ 20.6 µM)
- MIC (E. coli; E. coli strain 21 Bui): 4 µg/mL (≈ 10.3 µM)
- MIC (E. coli; [3]): 0.06 µg/mL (≈ 0.155 µM)
- MIC (Enterobacter): 0.12 µg/mL (≈ 0.31 µM)
- MIC (Klebsiella pneumoniae): 0.12 µg/mL (≈ 0.31 µM)

SMILES: CC1OCc2c(N3CCN(C)CC3)c(F)cc3c(=O)c(C(=O)O)cn1c23 (centres unmarked) [Reference, 9-fluoro-3-methyl-10-(4-methyl-1-piperazinyl)-7-oxo-1H,3H,7H-pyrido[3,2,1-i,j]-[3,1]-benzoxazine-6-carboxylic acid, reference compound]
- MIC (Salmonella): 1 µg/mL (≈ 2.77 µM)
- MIC (Staphylococcus aureus; [1]): 128 µg/mL (≈ 354 µM)
- MIC (Staphylococcus aureus; [2]): 16 µg/mL (≈ 44.3 µM)
- MIC (Pseudomonas): 64 µg/mL (≈ 177 µM)
- MIC (E. coli; E. coli strain 21 Bui): 0.05 µg/mL (≈ 0.138 µM)
- MIC (E. coli; E. coli strain Z 431 Lit): 0.05 µg/mL (≈ 0.138 µM)
- MIC (Enterobacter): 1 µg/mL (≈ 2.77 µM)
- MIC (Klebsiella pneumoniae): 0.5 µg/mL (≈ 1.38 µM)
